The values below come from patent US6716596B2, “Agents for replacement of NAD+/NADH system in enzymatic reactions” (The Regents of the University of California, priority 2001, dated 2004).

Where a name gives a salt, the structure may show the parent alone.

Data set [1] in a line: regioselective reduction of biomimics with catalyst precursor (2) and sodium formate, followed by 1H NMR. The conditions noted are these: for catalytic hydride transfer: reduction with (2) and HCO2Na, 1H NMR. The method, then:
The relative rates, seen tabulated in FIG. 1C, were determined by observing disappearance of the pyridinium signals versus an internal standard, [(CH3)4N]OTf (tetramethylammonium triflate), during the first 2 hours, where the relative rate of 1-benzylnicotinamide triflate (1) was set to 1.0. The turnover frequencies were calculated by the formation of mmol of product/mmol of catalyst/hour. The total turnover number in 24 hours was ˜95 for all substrates that gave product. The reactions were conducted in presilylated J. Young NMR tubes and were followed by ^1H NMR.
The electronic effect of differently substituted nicotinamide substrates was determined by their relative rates. The relative rates of these compounds were determined by observing the disappearance of the pyridinium signals compared to interval standard, [(CH3)4N]OTf, during the first 2 hours, where the relative rate of compound (1a) was 1.0.
In a typical reaction, a J. Young NMR tube was charged, biomimic substrates (1a)-(1i) (1.0 mol), 2 (1% mol), and HCO2Na (1.1 mol) used as the hydride source and a Schlenk techniques were conducted to deoxygenate the solid mixture. A diluted solvent was added to these solids for compounds (1a)-(1i), the solvent was D2O-THF-d8 (1=1 0.75 mL, deoxygenated), and the NMR tube was placed in a liquid nitrogen bath. The contents were further degassed by two successive freeze-pump-thaw cycles. After thawing out the reaction mixture, the J. Young NMR tube was immediately put in a salted ice-bath and covered with aluminum foil. The reaction was then followed by ^1H NMR spectroscopy at 26° C. temperature, after a speedy thawing out.
The given relative rates and turnover frequencies were determined by decreasing integration of the corresponding pyridinium salts measured against an internal standard, (CH3)4N(OTf), during the first 2 h of the reaction. The ratios of the 1,4- and 1,6-dihydronicotinamide derivatives of compounds (1a), (1b) and (1d)-(1g) were obtained by comparison of the resonance signals with those of authentic samples, where the diagnostic signal is the resonance for —CH2Ph moiety which can be identified unambiguously in the ^1H NMR spectrum.

Data set [2] in a line: stability observations (light, air, solvent). The format is physicochemical.
The target of data set [3] is T1, horse liver alcohol dehydrogenase (HLADH) (Equus caballus, UniProt P00327).
T1 construct: purchased Sigma
In words: HLADH enzymatic chiral reduction of ketones with biomimic co-factor regeneration. It counts as biochemical. Here is the method:
FIG. 7 presents structures of ketone substrates 12-15 used for biomimic chiral synthesis of corresponding alcohols. Conversion of the substrates 12-15 to their corresponding alcohols are expressed in % yield, and TOF in d^−1 and S-enantiomer excess (ee) are also shown for each conversion. Corresponding values obtained with NAD^+ are given in parenthesis. The S-enantiomeric excess (ee) was determined by GLC with a modified β-cyclodextrin capillary column.
(§1) [Cp*Rh(bpy)(H2O)]OTf2 (1.9 mg, 2.61×10^−3 mmol), sodium formate (17.8 mg, 261.69×10^−3 mmol), NAD^+ (8.1 mg, 11.23×10^−3 mmol) and HLADH (10 units) were placed in a 10 mL Schlenk flask, and Schlenk techniques were followed to deoxygenate the solid mixture.
(§2) Under positive argon pressure, 5 mL of potassium phosphate buffer (100 mM, pH=7.02, deoxygenated) and carbonyl substrate (83.58×10^−3 mmol, deoxygenated) were added via syringe. The reaction flask was immediately securely capped with a glass-stopper and shaken with a shaker in 30° C. water-bath. The reaction was monitored by gas chromatography (GC), equipped with a β-cyclodextrin column (Supelco, β-DEX-225), and the products were identified by comparing the retention time with the corresponding authentic chiral samples and were confirmed by GC-MS. The enantiomeric excess of the products was determined directly by their relative area in the chromatogram. The progress of the reaction was obtained by mixing the reaction aliquot with an internal standard (cyclohexanol in phosphate buffer), and then calibrating the measured relative area in the chromatogram with their corresponding response factors. The reaction was monitored for 24 hours.
The same procedure as described in section A was followed, except that NAD^+ was substituted with any one of the biomimic compounds of the invention.

Data set [4] is described as follows: UV-vis kinetics of the regioselective reduction with rhodium catalyst precursor (2) and formate. From the text: The kinetics of the regioselective reduction reactions were further studied utilizing UV-vis techniques with the two biomimic compounds (1) and (6) and the results were compared to NAD^+ itself. Experimental conditions are described in Example 9.
The effect of the initial rate (ri) at low conversions to the 1,4-dihydro product (˜10%) was ascertained by varying the amount of substrate precatalyst (2) and sodium formate concentrations.
The initial rates (ri) of formation of compound (3) were obtained from plots of concentration (absorbance at 354 nm/ε) versus time at low conversions (˜10%). The values of kcat were calculated at 299° K.
Rates were obtained via UV-vis techniques and are an average of two runs.
This example describes studies producing kinetic and thermodynamic data for 1-benzylnicotinamide triflate (1a) performed in THF/H2O, 1:1, β-nicotinamide -5′-ribose methyl phosphate (6) H2O, pH=6.5, and NAD^+ performed in the regioselective reduction with [Cp*Rh(bpy)H2O)][OTf]2, 2 and in the presence of formate ion.
The kinetic experiments were carried out on a Hewlett Packard 8452A Diode Array Uv-Vis spectrophotometer, attached to a circulating water bath (VWR 1160). For experiments conducted at different temperatures, the circulating water bath, as well as the UV-vis instrument, were warmed up for at least an 1 hour before the kinic studies were initiated.
The 1-benzylnicotinamide triflate (1a) [CP*Rh(bpy)(H2O)][OTf]2 (2) and 1-benzyl-1,4 dihydronicotinamide (3) were synthesized by methods as described in Examples 2, 4 and 7. The NAD^+ and 1,4-NADH compounds were purchased from Sigma and used as received. The THF was distilled from Na and deoxygenate with N2 gas for 1 hour. Distilled water was purchased from Aldrich Chemical Co and deoxygenate prior to being used. A solution of THF/H2O (similar for 1:1 or 1:4 ratios) was used for all the kinetic experiments performed for compounds of 1-benzylnicotinamide type, unless otherwise specified. A stock solution of biomimic (1a) (0.018 M), 2 (6.23×10^−3 M), and sodium formate (0.25 M) were made for the kinetic experiments in THF/H2O (1:1).
A solution of 1-benzylnicotinamide triflate (1a), (4.29×10^−3 M) and sodium formate (0.0539) was made in a volumetric flask (10 mL) under N2 in a THF/H2O (1:1) mixture. The different concentration of biomimic (1a) and sodium formate used for the kinetic experiments are reported above.
A 3.0 mL aliquot of this solution was transferred to a thermostated UV-vis cell by using an air-free syringe, which was also purged with N2 gas. The sample was then brought to the desired temperature for 30-60 min in the UV-vis spectrophotometer thermostated cell holder. Then, 23 μL of a 6.23×10^−3 M stock solution of [CP*Rh(bpy)(H2O)^2+ (2), was added-by syringe under a positive N2 pressure, quickly mixed with the solution, and the absorbance increase at 354 nm was immediately recorded. The experiment was carried out for 2 hours and the formation of the product, 1-benzyl-1,4-dihydronicotinamide, (3) was followed, with the change in absorbance being recorded every 90 seconds. Some kinetic experiments were carried out until all the starting material was converted to product. The induced volume change was taken into account for the calculation of the turnover frequency (TOF).
The kinetic experiments for the β-nicotinamide-5′-ribose methyl phosphate (6) and natural NAD^+ were performed using the same general procedure described above. These kinetic experiments were carried out in H2O and the concentration of β-nicotinamide-5′-ribose methyl phosphate (6) or NAD^+, sodium formate, and [Cp*Rh(bpy)(H2O)]^2+ (2), were in the order of 1.50×10^−3, 0.0186 M, and 1.42×10^−5 M, respectively. The λmax for the β-nicotinamide-5′-ribose methyl phosphate, (6), and natural NAD^+ was 336 nm. In all the initial rate plots, time =0 s was removed from the plots of Concentration versus Time. The standard deviation of the ri were calculated from 2σ values.

Data set [5] has as its target T1, horse liver alcohol dehydrogenase (HLADH). As to the kind of experiment: biomimetic reduction of norcamphor (racemic). The format is biochemical. To be noted: reaction with the biomimics of the invention. Here is the method: Biomimic yield expressed in equivalent was 86% corresponding to NAD^+ yield of 94% under the same conditions.
as §1, §2
The procedure described in section A is equally applicable to reduction of racemic compounds such as norcamphor, seen in FIG. 8. The method requires the following modification. Due to the sublimation of norcamphor in vacuo, the addition of norcamphor was conducted under positive argon pressure, followed by the addition of phosphate buffer via syringe.

Data set [6] is described as follows: competitive regioselective substrate reduction experiments with rhodium catalyst precursor (2). To be noted: for times faster than compound (1): competitive reduction with compound (1); for competitive rate: reduced in the presence of compound (1a). Here is the method:
In order to establish whether the σ-donating ability or the electron-withdrawing effect of the 3-substituent of the 1-benzylnicotinamide was the important parameter, several competitive substrate reduction experiments were performed.
For this purpose, the compound (1a) 1-benzylnicotinamide, was reduced with rhodium catalyst precursor (2) in the presence of its alternatively substituted derivatives, compounds (1e), substituted with —C(O)—CH3, (1g), substituted with (—CN), (1d), substituted with —C(S)NH2 or (1f), substituted with —C(O)OCH3, and their competitive reduction was determined.

T1 sequence (P00327 2-375 limits assumed): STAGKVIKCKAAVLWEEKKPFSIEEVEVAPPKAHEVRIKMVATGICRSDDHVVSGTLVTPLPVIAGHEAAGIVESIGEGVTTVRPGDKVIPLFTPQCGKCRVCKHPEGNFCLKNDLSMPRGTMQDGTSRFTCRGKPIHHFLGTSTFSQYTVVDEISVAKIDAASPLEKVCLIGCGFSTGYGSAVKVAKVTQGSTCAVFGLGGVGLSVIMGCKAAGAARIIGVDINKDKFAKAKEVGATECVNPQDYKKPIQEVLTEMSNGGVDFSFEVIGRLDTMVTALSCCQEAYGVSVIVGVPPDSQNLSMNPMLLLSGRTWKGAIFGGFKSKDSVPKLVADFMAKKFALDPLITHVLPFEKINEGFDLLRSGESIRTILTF

`CCN(CC)C(=O)c1ccc[n+](Cc2ccccc2)c1` [Compound 1c, 1-Benzyl-N,N-diethylnicotinamide, Triflate Salt]: in data set [1], the catalytic hydride transfer entry was “not observed”. Regarding `COP(=O)(O)OC[C@H]1O[C@@H](N2C=CCC(C(N)=O)=C2)[C@H](O)[C@@H]1O`, the stability entry in data set [2] is “both light- and air-sensitive”. For `NC(=O)C1=CN(Cc2ccccc2)C=CC1` [Compound 3, 1-benzyl-1,4-dihydronicotinamide], the “recognition by HLADH as hydride catalyst of the chiral conversion” value in data set [3] was “recognizes”. As for `COP(=O)([O-])OC[C@H]1O[C@@H]([n+]2cccc(C(N)=O)c2)[C@H](O)[C@@H]1O` [Compound 6, β-nicotinamide ribose-5′-methyl phosphate], the “TOF, times higher than those of compounds (1a)-(1i)” value in data set [1] is given as “approximately 2.5 times”. Moreover, in data set [1] (in water vs 1-benzylnicotinamide in THF/water), the “TOF, times higher than 1-benzylnicotinamide” value is “about 2.5 times”. Also, the “turnover frequency (TOF) in the regioselective reduction” value in data set [1] (reduction to 1,4-dihydro derivative, NAD+ under the same conditions) came out at 20 h⁻¹. Also, the TOF in data set [4] (294° K, H2O at pH 6.54, substrate 1.55 × 10^−3 M) came to 7 h⁻¹. Besides, the ri initial rate in data set [4] (294° K, H2O at pH 6.54, substrate 1.55 × 10^−3 M, average of two runs) was 2.82e-08 M/s. In addition, the “initial rate, times higher than compound (1) in THF/H2O (1:1)” value in data set [4] (acqueous medium, comparable concentrations) was approximately 3 times. Besides, the stability result in data set [2] is “light-sensitive and somewhat air-sensitive”. The “recognition by HLADH as hydride catalyst of the chiral conversion” value in data set [3] was “recognizes”. The “turnover frequency of chiral ketone reduction” value in data set [3] (ketone (12) reduced by HLADH with co-factor regeneration, 24 hours) is approximately 30 day⁻¹. For `Cc1ccc[n+](Cc2ccccc2)c1.O=S(=O)([O-])C(F)(F)F` [Compound 1h, 1-Benzyl-3-methylpyridinium triflate], in data set [1], the catalytic hydride transfer entry is reported as “not observed”. Take `O=C1CC2CC[C@H]1C2` (racemic) [Compound 17, norcamphor]: the “exo/endo alcohols formed from norcamphor enantiomer” value in data set [5] was “approximately equal mixture of exo and endo alcohols”.

Turning to `O=C1CC2CC[C@H]1C2` (racemic) [Compound 16, norcamphor], in data set [5], the “exo/endo alcohols formed from norcamphor enantiomer” value is reported as “exclusively the endo alcohol”. For the compound `NC(=S)c1ccc[n+](Cc2ccccc2)c1` [Compound 1d, 1-Benzylthionicotinamide, Triflate Salt], the “times faster than compound (1)” value in data set [6] stood at 1.3 times. Regarding `CC(=O)c1ccc[n+](Cc2ccccc2)c1.O=S(=O)([O-])C(F)(F)F` [Compound 1e, 1-Benzyl-3-acetylpyridinium Triflate], the competitive rate in data set [6] was 0.9. Take `CC(=O)Cc1ccccc1` [Compound 13, benzylmethylketone]: the “enantiomeric excess of chiral alcohol from the ketone substrate, S-enantiomer” value in data set [3] is listed as more than 99 % ee. Consider `O=S(=O)([O-])C(F)(F)F.c1ccc(C[n+]2ccccc2)cc1` [Compound 1i, 1-Benzyl-pyridinium triflate], for which the catalytic hydride transfer result in data set [1] was “not observed”. For `CC(=O)c1ccccc1` [Compound 14, acetophenone], in data set [3], the “enantiomeric excess of chiral alcohol from the ketone substrate, S-enantiomer” value is given as more than 96 % ee and the “yield of chiral product” value is 5%. As for `C[n+]1cccc(C(N)=O)c1` [1-methylnicotinamide, 1-Methylnicotinamide Triflate Salt], the “relative rate ratio of 1-benzyl/1-methylnicotinamide” value in data set [1] is 2.0. Further, in data set [1] (disappearance of pyridinium signals vs [(CH3)4N]OTf during first 2 hours, compound (1a) set to 1.0), the “relative rate of regioselective reduction” value is 0.5. As to `COC(=O)c1ccc[n+](Cc2ccccc2)c1.O=S(=O)([O-])C(F)(F)F` [Compound 1f, 1-Benzyl-3-carbomethoxypyridinium Triflate], in data set [6], the “times faster than compound (1)” value came out at 1.2 times. For the compound `N#Cc1ccc[n+](Cc2ccccc2)c1.O=S(=O)([O-])C(F)(F)F` [Compound 1g, 1-Benzyl-3-cyanopyridinium triflate], the competitive rate in data set [6] was 0.8.

Turning to “[Cp*Rh(η^2-(N,N)-2,2′-bipyridyl)(H2O)](OTf)2 [Compound 2]”, the stability entry in data set [2] is “stable as a solid in the air”.
